Assay results reported in PMC10192568, “Comparison of pharmacokinetic profiles of seven major bioactive components in normal and non-alcoholic fatty liver disease (NAFLD) rats after oral administration of Ling-Gui-Zhu-Gan decoction by UPLC-MS/MS” (Frontiers in Pharmacology, 2023).
Like-named read-outs stand apart in the source and are kept apart here.

Experiments:
[1] = Pharmacokinetic study of LGZGD components in plasma of normal and NAFLD rats after oral administration (UPLC-MS/MS); format: in vivo, Male Sprague–Dawley rats; settings: for MRT last: read-out: MRT0-t
Description: Male Sprague–Dawley rats, weighing 200–220 g, SPF grade, were purchased from Shanghai Sippr-BK laboratory animal Co. Ltd. (Shanghai, China) and raised in the Laboratory Animal Center of Shanghai University of Traditional Chinese Medicine. The rats were kept in an environmentally controlled condition: on a 12:12 h light–dark cycle (lights on at 7:00 a.m.) with regulated temperature and humidity, at a temperature of 22°C–24°C and a relative humidity of 60–65%. In the experiment, the rats in the normal group were fed a certified standard rat diet and tap water, while those in the model group were fed a high-fat diet for 8 weeks to construct the NAFLD model (high-fat diet: 2% cholesterol, 10% lard, 0.1% sodium cholate, 10% yolk powder, and 77.9% normal diet). The animal experiment program was approved by the Animal Committee of Shanghai University of Traditional Chinese Medicine (License No.: PZSHUTCM201016001).
An Agilent 1290 UPLC system was combined with an Agilent 6460 series MS/MS system (Agilent Technologies, Santa Clara, CA, United States) to quantify the analytes in the ESI-positive ionization mode. The mass spectrum conditions were as follows: a capillary voltage of 4,000 V; a gas flow rate of 10 L/min; a nebulizer of 30 psi; a gas temperature of 350°C; and a Delta EMV(+) of 200 V. Five microliters of the samples was injected into an Agilent SB-C18 column (2.1 mm × 50 mm, 1.8 μm particles). The analytes were separated using the gradient elution method, and the mobile phase was composed of water (0.05% V/V formic acid) (A) and acetonitrile (B) at a flow rate of 0.4 mL/min (0–1 min, 10–10% B; 1–5 min, 10–90% B; 5–7 min, 90–90% B; and 7–7.1 min, B 90–10%; rebalance for 2 min).
A plasma sample of 50 µL was placed in a 1.5 mL centrifuge tube with 10 µL of schisandrin (IS) solution (50 ng/mL) and mixed for 5 min. The samples were successively extracted with 500 µL of ethyl acetate and treated with 250 µL of methanol, which were then mixed for 5 min and centrifuged at 4°C for 10 min (at 18,000 rpm). All the supernatant was absorbed into another 1.5 mL centrifuge tube, dried under a gentle stream of nitrogen at 37°C, and then added with 50 µL of 50% methanol for reconstruction. After being centrifuged at 4°C for 10 min (at 18,000 rpm), 5 µL of the supernatant was extracted and injected into a chromatographic column for analysis, and the chromatograms were recorded.
The rats were randomly divided into the normal group and the model group. According to the preliminary experiment, the dose was adjusted to about eight times the normal dose ([Gu, 2020]; [Li et al., 2023]). […] The animal research program was approved by the Animal Committee of Shanghai University of Traditional Chinese Medicine. At 0, 0.083, 0.25, 0.5, 0.75, 1, 2, 4, 6, 8, 10, 12, 24, and 48 h after dosing, 150 µL blood samples were collected from the rats' orbital venous plexus into centrifuge tubes containing 10 IU of sodium heparin. After being centrifuged at 5,000 rpm (4°C) for 10 min, the plasma was transferred to 1.5 mL polypropylene tubes and stored at −80°C until the plasma samples were analyzed.
Important pharmacokinetic parameters, which included the maximum plasma concentration (C max), time to maximum concentration (T max), half-life (t 1/2), area under the curve (AUC0-t), and total area under the curve (AUC0-∞), were hereby calculated using the DAS 3.2.8 software. Meanwhile, the pharmacokinetic data of the normal and model rats were compared using the SPSS software (version 21.0). Besides, Spearman rank bivariate correlation coefficient was used to determine the correlation between AUC values and UGT1A1 and nine other transporters. All the calculated data were expressed as mean ± SD. When p < 0.05, the difference was considered significant and statistically significant; and when p < 0.01 or <0.001, the difference was considered very significant.

[2] = Stability of the seven components in rat plasma QC samples; format: physicochemical; settings: n = 6; for Stability during 24 h at 4°C, RE: auto sampler
Description: Stability refers to the ability of the components to retain their chemical properties in the matrix. To analyze the stability of all components in the plasma, six replicates of QC samples at three concentrations were hereby prepared under each condition. The stability of the QC samples at three concentrations was analyzed under different storage conditions: −80°C for 30 days, after three freeze–thaw cycles, and 24 h in an auto sampler at 4°C.

[3] = NAFLD rats compared with normal rats, oral LGZGD
[4] = male, Sprague-Dawley, rat, plasma, po, 23 g/kg, Model (NAFLD) group, male SD rats, oral LGZGD extract 23 g/kg, plasma, mean ± SD, n = 6
[5] = male, Sprague-Dawley, rat, plasma, po, 23 g/kg, Normal group, male SD rats, oral LGZGD extract 23 g/kg, plasma, mean ± SD, n = 6

AUC0-∞ value decreased [1, 3]: 53.7%
C max value decreased [1, 3]: 63.8%
MRT0-t prolonged ([1]; NAFLD rats compared with the normal group, oral LGZGD): 31.2%
t 1/2 ([1]; Normal group, male SD rats, oral LGZGD extract 23 g/kg, plasma, mean ± SD, n = 6): 5.2 ± 2.5 h
AUC(0-inf) [1, 4]: 53400 ± 22100 ng·h/mL
AUC(0-t) [1, 4]: 52800 ± 22300 ng·h/mL
Cmax [1, 4]: 3740 ± 991 ng/mL
Tmax [1, 4]: 6.8 ± 4.1 h
half-life [1, 4]: 6 ± 3.4 h
MRT last [1, 4]: 10.1 ± 1.3 h
AUC(0-inf) [1, 5]: 115000 ± 32900 ng·h/mL
AUC(0-t) [1, 5]: 115000 ± 32900 ng·h/mL
Cmax [1, 5]: 10300 ± 1850 ng/mL
Tmax [1, 5]: 4.8 ± 1.1 h
MRT last [1, 5]: 7.7 ± 1.6 h
Stability during 24 h at 4°C, RE ([2]; high QC level): −3.0%
Stability during 24 h at 4°C, RE ([2]; low QC level): 1.4%
Stability during 24 h at 4°C, RE ([2]; medium QC level): 5.4%
Three freeze–thaw cycles, RE ([2]; high QC level): 4.1%
−80°C for 30 days, RE ([2]; high QC level): −1.2%
Three freeze–thaw cycles, RE ([2]; low QC level): 10.5%
−80°C for 30 days, RE ([2]; low QC level): −4.1%
Three freeze–thaw cycles, RE ([2]; medium QC level): −1.8%
−80°C for 30 days, RE ([2]; medium QC level): 3.1%
Compound: O=C1C[C@@H](c2ccc(O[C@@H]3O[C@H](CO)[C@@H](O)[C@H](O)[C@H]3O)cc2)Oc2cc(O)ccc21 [Liquiritin, liquiritin]
